According to patent EP1184374A1, “Carboxamide derivatives of pyrrolidine, piperidine and hexahydroazepine for the treatment of thrombosis disorders” (ORTHO PHARMACEUTICAL CORPORATION, priority 1996, dated 1997):

Tests used:
[1] = tested on: gel-filtered platelets; assay: In vitro inhibition of thrombin-induced gel-filtered platelet aggregation; type: cell-based; settings: Homo sapiens
Method: IN VITRO INHIBITION OF THROMBIN-INDUCED GEL-FILTERED PLATELET AGGREGATION ASSAY.
The percentage of platelet aggregation is calculated as an increase in light transmission of compound-treated platelet concentrate vs. control-treated platelet concentrate. Human blood is obtained from drug free, normal donors into tubes containing 0.13M sodium citrate. Platelet rich plasma (PRP) is collected by centrifugation of whole blood at 200 x g for 10 min at 25°C. The PRP (5 mL) is gel filtered through Sepharose 2B (bed volume 50 mL), and the platelet count is adjusted to 2x10^7 platelets per sample. The following constituents are added to a siliconized cuvette: concentrated platelet filtrate and Tyrode's buffer (0.14M NaCl, 0.0027MKCl, 0.012M NaHCO3, 0.76 mM Na2HPO4, 0.0055M glucose, 2 mg/mL BSA and 5.0mM HEPES @ pH 7.4) in an amount equal to 350 µl, 50 µl of 20 mM calcium and 50 µl of the test compound. Aggregation is monitored in a BIODATA aggregometer for the 3 min following the addition of agonist (thrombin 50 µl of 1 unit/mL).

[2] = tested on: collagen- or ADP-induced ex vivo platelet aggregation; assay: Ex vivo dog study (platelet aggregation, hemodynamics, bleeding time, coagulation, cell counts); type: in vivo, dogs
Method: Adult mongrel dogs (8-13 kg) were anesthetized with sodium pentobarbital (35 mg/kg, i.v.) and artificially respired. Arterial blood pressure and heart rate were measured using a Millar catheter-tip pressure transducer inserted in a femoral artery. Another Millar transducer was placed in the left ventricle (LV) via a carotid artery to measure LV end diastolic pressure and indices of myocardial contractility. A lead II electrocardiogram was recorded from limb electrodes. Catheters were placed in a femoral artery and vein to sample blood and infuse drugs, respectively. Responses were continuously monitored using a Modular Instruments data aquisition system.
Arterial blood samples (5-9 ml) were withdrawn into tubes containing 3.8% sodium citrate to prepare platelet rich plasma (PRP) and to determine effects on coagulation parameters: prothrombin time (PT) and activated partial thromboplastin time (APTT). Separate blood samples (1.5 ml) were withdrawn in EDTA to determine hematocrit and cell counts (platelets, RBC's and white cells). Template bleeding times were obtained from the buccal surface using a symplate incision devise and Whatman filter paper.
Aggregation of PRP was performed using a BioData aggregometer. Aggregation of whole blood used a Chronolog impedance aggregometer. PT and APTT were determined on either a BioData or ACL 3000+ coagulation analyser. Cells were counted with a Sysmex K-1000.
Compounds were solubilized in a small volume of dimethylformamide (DMF) and diluted with saline to a final concentration of 10% DMF. Compounds were administered by the intravenous route with a Harvard infusion pump. Doses was administered over a 15 min interval at a constant rate of 0.33 ml/min. Data were obtained after each dose and in 30 min intervals following the end of drug administration. Oral doses were administered as aqueous solutions via syringe.

[3] = tested on: thrombus formation; assay: Canine arteriovenous shunt model of thrombosis; type: in vivo
Method: For instance, compound 16 inhibits thrombus formation at 10, 30, and 100 µg/kg/min cumulative doses by iv infusion (75%, 37%, 12% of thrombus weight vs. vehicle control, respectively). Compound 18 inhibits thrombus formation at 3, 10, and 30 µg/kg/min cumulative doses by iv infusion (82%, 41%, 12% of thrombus weight vs. vehicle control, respectively).

[4] = molecular target: GPIIb/IIIa (Homo sapiens, UniProt P05106+P08514); assay: In vitro solid phase purified glycoprotein IIb/IIIa binding assay (biotinylated fibrinogen binding); settings: read-out: Fibrinogen Binding % Inh. (50 µM)
Sequence of GPIIb/IIIa (P08514 32-887 limits assumed): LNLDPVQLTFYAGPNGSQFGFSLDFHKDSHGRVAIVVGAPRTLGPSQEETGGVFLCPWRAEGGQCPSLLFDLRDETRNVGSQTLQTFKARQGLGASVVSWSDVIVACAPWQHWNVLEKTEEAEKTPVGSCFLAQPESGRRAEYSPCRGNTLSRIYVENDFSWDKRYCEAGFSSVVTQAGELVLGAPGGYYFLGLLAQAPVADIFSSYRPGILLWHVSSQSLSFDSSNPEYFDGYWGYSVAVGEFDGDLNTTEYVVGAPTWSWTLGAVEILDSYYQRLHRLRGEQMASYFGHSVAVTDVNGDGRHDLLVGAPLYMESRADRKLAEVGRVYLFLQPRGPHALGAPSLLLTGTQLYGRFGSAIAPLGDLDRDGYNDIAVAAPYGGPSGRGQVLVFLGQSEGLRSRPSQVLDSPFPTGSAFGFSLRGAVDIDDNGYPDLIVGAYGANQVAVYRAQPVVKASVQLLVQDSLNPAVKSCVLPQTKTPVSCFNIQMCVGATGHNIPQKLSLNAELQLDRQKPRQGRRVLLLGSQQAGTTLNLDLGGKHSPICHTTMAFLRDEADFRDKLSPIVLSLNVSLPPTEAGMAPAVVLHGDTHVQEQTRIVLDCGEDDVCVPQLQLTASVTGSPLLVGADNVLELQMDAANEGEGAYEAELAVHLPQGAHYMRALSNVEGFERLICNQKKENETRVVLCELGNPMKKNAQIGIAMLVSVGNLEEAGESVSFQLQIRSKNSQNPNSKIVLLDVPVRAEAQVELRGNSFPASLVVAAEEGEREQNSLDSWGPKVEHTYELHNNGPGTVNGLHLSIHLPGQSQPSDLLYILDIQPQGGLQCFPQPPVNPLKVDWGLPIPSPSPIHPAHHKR
Sequence of GPIIb/IIIa (P08514 891-1039 partner limits assumed): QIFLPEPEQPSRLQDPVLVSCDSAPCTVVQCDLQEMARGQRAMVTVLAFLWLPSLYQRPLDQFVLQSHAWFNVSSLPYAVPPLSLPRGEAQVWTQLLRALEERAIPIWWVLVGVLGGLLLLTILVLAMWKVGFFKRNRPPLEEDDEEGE
Sequence of GPIIb/IIIa (P05106 27-788): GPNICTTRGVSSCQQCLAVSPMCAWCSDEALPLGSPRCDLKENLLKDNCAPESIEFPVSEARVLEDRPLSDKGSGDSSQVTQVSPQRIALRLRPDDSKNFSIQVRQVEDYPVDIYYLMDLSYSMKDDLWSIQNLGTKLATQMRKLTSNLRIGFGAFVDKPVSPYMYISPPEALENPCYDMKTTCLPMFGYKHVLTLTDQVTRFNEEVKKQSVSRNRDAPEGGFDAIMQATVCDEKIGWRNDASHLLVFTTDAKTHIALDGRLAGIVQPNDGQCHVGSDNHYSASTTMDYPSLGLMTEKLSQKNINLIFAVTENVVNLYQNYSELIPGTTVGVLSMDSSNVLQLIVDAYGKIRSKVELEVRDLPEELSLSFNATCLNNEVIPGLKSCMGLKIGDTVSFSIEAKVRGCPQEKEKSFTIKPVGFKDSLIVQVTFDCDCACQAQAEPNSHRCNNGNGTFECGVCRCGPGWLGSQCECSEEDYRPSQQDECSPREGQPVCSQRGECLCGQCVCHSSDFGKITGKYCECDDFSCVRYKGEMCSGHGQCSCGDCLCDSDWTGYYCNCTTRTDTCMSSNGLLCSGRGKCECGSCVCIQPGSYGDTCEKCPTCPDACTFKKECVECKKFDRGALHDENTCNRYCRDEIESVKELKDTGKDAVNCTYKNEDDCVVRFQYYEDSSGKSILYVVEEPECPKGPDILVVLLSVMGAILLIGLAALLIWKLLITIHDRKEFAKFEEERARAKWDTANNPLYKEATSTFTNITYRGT
Method: IN VITRO SOLID PHASE PURIFIED GLYCOPROTEIN IIB/IIIA BINDING ASSAY.
The plate is covered and incubated overnight at 4°C. The GPIIb/IIa solution is discarded and 150 µl of 5% BSA is added and incubated at RT for 1-3 h. The plate is washed extensively with modified Tyrodes buffer. Biotinylated fibrinogen (25 µl/well) at 2 x final concentration is added to the wells that contain the test compounds (25 µl/well). The plate is covered and incubated at RT for 2-4 h. Twenty minutes prior to incubation completion, one drop of Reagent A (Vecta Stain ABC Horse Radish Peroxidase kit, Vector Laboratories, Inc.) and one drop Reagent B are added with mixing to 5 mL modified Tyrodes buffer mix and let stand. The ligand solution is discarded and the plate washed (5 x 200 µl/well) with modified Tyrodes buffer. Vecta Stain HRP-Biotin-Avidin reagent (50 µl/well, as prepared above) is added and incubated at RT for 15 min. The Vecta Stain solution is discarded and the wells washed (5 x 200 µl/well) with modified Tyrodes buffer. Developing buffer (10 mL of 50 mM citrate/phosphate buffer @ pH 5.3, 6 mg o-phenylenediamine, 6 µl 30% H2O2; 50 µl/well) is added and incubated at RT for 3-5 min, and then 2N H2SO4 (50 µl/well) is added. The absorbance is read at 490 nm.

[5] = tested on: platelet aggregation; settings: L. Alig, J. Med. Chem. 1992, 35, 4393; read-out: IC50 against in vitro thrombin-induced platelet aggregation; cited from earlier work

| IC50 [1] | inhibition at 50 µM [4] | SMILES | inhibition at 50 µM ([1]; 50 µM, read-out: Platelet Aggregation % Inh. (50µM)) | Duration of >50% inhibition of collagen- or ADP-induced ex vivo platelet aggregation ([2]; intravenous dosing 0.1 mpk) | Duration of >50% inhibition of collagen- or ADP-induced ex vivo platelet aggregation ([2]; oral dosing 1 mpk) | % of thrombus weight vs. vehicle control ([3]; 3 µg/kg/min cumulative dose by iv infusion) | % of thrombus weight vs. vehicle control ([3]; 10 µg/kg/min cumulative dose by iv infusion) | % of thrombus weight vs. vehicle control ([3]; 30 µg/kg/min cumulative dose by iv infusion) | IC50 [5] |
| --- | --- | --- | --- | --- | --- | --- | --- | --- | --- |
| 19 nM | 100% | O=C(O)C[C@H](NC(=O)[C@@H]1CCCN(C(=O)CCC2CCNCC2)C1)c1cnc2ccccc2c1 [Compound 18, N-3-(4-Piperidinepropionyl)-R-(-)-nipecotyl-[(S)-3-amino-3-(3-quinolinyl)]propionic acid] | 100% | 30 min | 150 min | 82% | 41% | 12% | – |
| – | – | CN(CC(=O)c1ccc(OCC(=O)O)c(OCC(=O)O)c1)C(=O)c1ccc(C(=N)N)cc1 [Ro-438857] | – | – | – | – | – | – | 94 nM |
